From article PMC7782793, “Hydroxamic acid-modified peptide microarrays for profiling isozyme-selective interactions and inhibition of histone deacetylases” (Nature Communications, 2021)
Several values for one entry are separate records, joined by “and”; a condition that tells them apart may be missing. Equal entries are not always repeated. Marks after values point to notes of the source that are not given here. Non-standard residues stand in square brackets, D forms with d. Residues, ends and D or L forms follow the SMILES beside them. *: point of attachment. Asu = N[C@@H](CCCCCC(=O)O)C(=O)O; NHOH = ON*

Legend:
[1] = biological target: T1, HDAC1 (Homo sapiens, UniProt Q13547); test: HDAC inhibition assay (fluorogenic, Ac-Leu-Gly-Lys(Ac)-AMC); assay type: biochemical; conditions: for HDAC1 dose-response data (relative enzyme activity), Fig. 6 + S. Fig. 10: duplicate columns
T1 construct: HDAC1 (full length, C-terminal His tag, C-terminal FLAG tag, BPS Bioscience, cat. #: 50051); FLAG (C); purchased BPS Bioscience 50051
T1 sequence (Q13547 whole entry): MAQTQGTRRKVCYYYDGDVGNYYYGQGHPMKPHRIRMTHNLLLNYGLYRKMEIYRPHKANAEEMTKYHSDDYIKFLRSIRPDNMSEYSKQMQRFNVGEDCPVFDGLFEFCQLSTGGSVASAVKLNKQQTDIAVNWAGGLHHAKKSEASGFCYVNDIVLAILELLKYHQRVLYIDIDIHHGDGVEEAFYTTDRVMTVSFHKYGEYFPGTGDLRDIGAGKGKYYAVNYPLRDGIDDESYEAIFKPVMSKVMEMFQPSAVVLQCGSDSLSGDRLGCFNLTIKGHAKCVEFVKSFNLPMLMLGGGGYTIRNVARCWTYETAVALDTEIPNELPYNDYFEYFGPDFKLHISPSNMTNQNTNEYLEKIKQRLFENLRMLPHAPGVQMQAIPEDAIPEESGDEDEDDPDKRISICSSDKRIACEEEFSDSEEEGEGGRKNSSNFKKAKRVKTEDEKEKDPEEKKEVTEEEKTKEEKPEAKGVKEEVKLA

[2] = biological target: T2, HDAC2 (Homo sapiens, UniProt Q92769); test: Recombinant HDAC µSPOT microarray binding assay;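 further: Cellulose-bound peptide spots on slides incubated with six HDAC enzyme concentrations, binding intensity read, four-parameter variable-slope fit, EC50 is enzyme concentration giving half-maximal binding, in HEPES buffer pH 7.4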
T2 construct: HDAC2 (full length, C-terminal His tag, BPS Bioscience, cat. #: 50002); purchased BPS Bioscience 50002
T2 sequence (Q92769 whole entry): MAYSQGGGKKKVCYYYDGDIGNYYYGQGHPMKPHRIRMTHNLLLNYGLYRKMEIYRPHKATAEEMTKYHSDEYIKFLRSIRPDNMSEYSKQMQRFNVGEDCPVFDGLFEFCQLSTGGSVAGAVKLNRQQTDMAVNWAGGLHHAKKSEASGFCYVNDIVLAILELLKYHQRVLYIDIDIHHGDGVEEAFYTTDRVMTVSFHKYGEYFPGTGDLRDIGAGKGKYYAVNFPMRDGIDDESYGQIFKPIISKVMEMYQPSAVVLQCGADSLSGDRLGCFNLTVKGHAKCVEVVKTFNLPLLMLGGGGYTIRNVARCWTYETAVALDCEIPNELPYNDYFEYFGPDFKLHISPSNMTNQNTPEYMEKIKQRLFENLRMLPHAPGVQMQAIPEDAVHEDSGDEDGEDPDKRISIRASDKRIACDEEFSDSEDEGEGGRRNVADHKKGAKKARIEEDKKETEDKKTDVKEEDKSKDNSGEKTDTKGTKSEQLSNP

[3] = biological target: T3, HDAC8 (Homo sapiens, UniProt Q9BY41); test: HDAC inhibition assay (fluorogenic, Ac-Leu-Gly-Lys(Tfa)-AMC); assay type: biochemical; conditions: for HDAC8 dose-response data (relative enzyme activity, replicate values), Fig. 6 + S. Fig. 10: two replicate columns per inhibitor; for HDAC8 dose-response data (relative enzyme activity), Fig. 6 + S. Fig. 10: duplicate columns
T3 construct: HDAC8 (full length, C-terminal His tag, BPS Bioscience, cat. #: 50008); purchased BPS Bioscience 50008
T3 sequence (Q9BY41 1-377): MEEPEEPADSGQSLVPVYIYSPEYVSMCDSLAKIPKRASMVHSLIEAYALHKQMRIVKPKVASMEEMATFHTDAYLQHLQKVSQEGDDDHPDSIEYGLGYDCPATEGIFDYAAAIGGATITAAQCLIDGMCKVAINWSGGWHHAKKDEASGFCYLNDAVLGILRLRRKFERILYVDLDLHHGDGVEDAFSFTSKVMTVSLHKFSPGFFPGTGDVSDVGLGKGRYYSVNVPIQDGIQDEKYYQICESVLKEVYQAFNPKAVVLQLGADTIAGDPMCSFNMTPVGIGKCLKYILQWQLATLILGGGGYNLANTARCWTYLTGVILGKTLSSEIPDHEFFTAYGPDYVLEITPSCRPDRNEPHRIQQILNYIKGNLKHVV

[4] = biological target: T4, HDAC6 (Homo sapiens, UniProt Q9UBN7); test: HDAC inhibition assay (fluorogenic, Ac-Leu-Gly-Lys(Ac)-AMC); assay type: biochemical; conditions: HDAC6, replicates
T4 construct: HDAC6 (full length, BPS Bioscience, cat. #: 50056); purchased BPS Bioscience 50056
T4 sequence (Q9UBN7 1-1215): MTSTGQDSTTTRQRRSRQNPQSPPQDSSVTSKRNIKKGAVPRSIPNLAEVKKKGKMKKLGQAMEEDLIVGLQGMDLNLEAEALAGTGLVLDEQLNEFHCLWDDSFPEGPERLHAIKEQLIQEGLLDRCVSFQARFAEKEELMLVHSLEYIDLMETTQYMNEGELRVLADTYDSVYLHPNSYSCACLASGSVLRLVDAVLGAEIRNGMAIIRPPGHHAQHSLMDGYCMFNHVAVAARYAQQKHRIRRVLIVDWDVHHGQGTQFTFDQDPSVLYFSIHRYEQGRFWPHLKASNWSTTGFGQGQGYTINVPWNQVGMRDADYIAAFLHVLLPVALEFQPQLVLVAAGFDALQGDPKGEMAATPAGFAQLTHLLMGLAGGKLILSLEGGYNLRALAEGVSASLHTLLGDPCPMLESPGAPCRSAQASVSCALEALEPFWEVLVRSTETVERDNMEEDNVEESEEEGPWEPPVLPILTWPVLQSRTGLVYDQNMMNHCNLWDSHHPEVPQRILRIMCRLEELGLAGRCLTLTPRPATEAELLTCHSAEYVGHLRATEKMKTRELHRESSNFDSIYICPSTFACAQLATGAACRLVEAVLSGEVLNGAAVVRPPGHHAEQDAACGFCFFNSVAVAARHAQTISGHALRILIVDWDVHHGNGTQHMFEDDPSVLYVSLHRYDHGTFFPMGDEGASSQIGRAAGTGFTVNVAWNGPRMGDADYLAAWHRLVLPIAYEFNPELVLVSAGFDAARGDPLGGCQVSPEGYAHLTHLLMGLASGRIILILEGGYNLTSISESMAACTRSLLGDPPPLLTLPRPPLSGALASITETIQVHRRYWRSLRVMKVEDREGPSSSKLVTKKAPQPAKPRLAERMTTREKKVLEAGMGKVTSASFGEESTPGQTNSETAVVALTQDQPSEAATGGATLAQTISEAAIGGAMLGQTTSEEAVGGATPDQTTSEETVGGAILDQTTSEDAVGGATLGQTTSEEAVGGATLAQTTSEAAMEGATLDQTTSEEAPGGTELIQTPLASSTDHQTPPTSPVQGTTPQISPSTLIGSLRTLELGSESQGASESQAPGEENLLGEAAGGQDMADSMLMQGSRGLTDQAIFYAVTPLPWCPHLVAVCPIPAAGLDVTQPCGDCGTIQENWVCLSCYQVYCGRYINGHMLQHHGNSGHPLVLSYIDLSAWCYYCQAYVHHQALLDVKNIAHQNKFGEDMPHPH

For `CC[C@H](C)[C@H](NC(=O)[C@@H](NC(=O)[C@H](CO)NC(=O)[C@H](CCCNC(=N)N)NC(=O)[C@H](CCCCCC(=O)NO)NC(=O)[C@H](CC(N)=O)NC(=O)[C@H](Cc1ccc(O)cc1)NC(=O)[C@H](Cc1c[nH]cn1)NC(=O)[C@H](C)NC(=O)[C@H](CC(C)C)NC(=O)[C@H](CCCNC(=N)N)NC(=O)[C@H](CO)NC(=O)[C@H](C)NC(=O)[C@H](CCC(=O)O)NC(C)=O)[C@@H](C)O)C(=O)N[C@H](C(=O)N[C@@H](CO)C(=O)N[C@@H](Cc1c[nH]c2ccccc12)C(N)=O)[C@@H](C)O` [11a] (Ac-EASRLAHYN[Asu](NHOH)RSTITSW-NH2), the Ki [1] was 13.1 ± 0.1 nM, the “HDAC1 dose-response data (relative enzyme activity), Fig. 6 + S. Fig. 10” value ([1]; log[inhibitor(M)] -5.69897) was 4.17 and 5.0607 and the “HDAC1 dose-response data (relative enzyme activity), Fig. 6 + S. Fig. 10” value ([1]; log[inhibitor(M)] -6.39794) was 14.283 and 18.2541. The “HDAC1 dose-response data (relative enzyme activity), Fig. 6 + S. Fig. 10” value ([1]; log[inhibitor(M)] -7.09691) was 37.8888 and 46.2715, the “HDAC1 dose-response data (relative enzyme activity), Fig. 6 + S. Fig. 10” value ([1]; log[inhibitor(M)] -7.79588) was 70.7486 and 79.6987 and the “HDAC1 dose-response data (relative enzyme activity), Fig. 6 + S. Fig. 10” value ([1]; log[inhibitor(M)] -8.49485) was 87.0411 and 94.7749. The “HDAC1 dose-response data (relative enzyme activity), Fig. 6 + S. Fig. 10” value ([1]; log[inhibitor(M)] -9.19382) was 97.6689 and 100.068, the “HDAC1 dose-response data (relative enzyme activity), Fig. 6 + S. Fig. 10” value ([1]; log[inhibitor(M)] -9.89279) was 97.248 and 100.059 and the “HDAC1 dose-response data (relative enzyme activity), Fig. 6 + S. Fig. 10” value ([1]; log[inhibitor(M)] -10,5850266520292*, whole line marked with asterisks) was 97,6864843* and 100,018018*. The EC50 [2] was greater than 25.1 nM, the Ki [3] was 216 ± 1 nM and the “HDAC8 dose-response data (relative enzyme activity, replicate values), Fig. 6 + S. Fig. 10” value ([3]; Inhibitor conc [M] -8.49485 (log)) was 96.1111 and 96.5276. The “HDAC8 dose-response data (relative enzyme activity, replicate values), Fig. 6 + S. Fig. 10” value ([3]; Inhibitor conc [M] -9.19382 (log)) was 96.7641 and 98.5453, the “HDAC8 dose-response data (relative enzyme activity, replicate values), Fig. 6 + S. Fig. 10” value ([3]; Inhibitor conc [M] given as -7.09691 (log)) was 74.7826 and 76.7416 and the “HDAC8 dose-response data (relative enzyme activity, replicate values), Fig. 6 + S. Fig. 10” value ([3]; Inhibitor conc [M] given as -7.79588 (log)) was 92.4501 and 93.9678. The “HDAC8 dose-response data (relative enzyme activity, replicate values), Fig. 6 + S. Fig. 10” value ([3]; Inhibitor conc [M] given as -9.89279 (log)) was 96.0276 and 96.961, the “HDAC8 dose-response data (relative enzyme activity, replicate values), Fig. 6 + S. Fig. 10” value ([3]; Inhibitor conc [M] given as -10.585 (log)) was 97,4443859* and 98,1506198* and the “HDAC8 dose-response data (relative enzyme activity), Fig. 6 + S. Fig. 10” value ([3]; Inhibitor conc [M] -4.30103) was 1.735 and 1.62. The “HDAC8 dose-response data (relative enzyme activity), Fig. 6 + S. Fig. 10” value ([3]; Inhibitor conc [M] -5) was 6.862 and 6.863, the “HDAC8 dose-response data (relative enzyme activity), Fig. 6 + S. Fig. 10” value ([3]; Inhibitor conc [M] -5.69897) was 19.3274 and 19.565 and the “HDAC8 dose-response data (relative enzyme activity), Fig. 6 + S. Fig. 10” value ([3]; Inhibitor conc [M] -6.39794) was 44.2904 and 45.2063. The “residual enzymatic activity relative to control wells” value ([4]; log[inhibitor(M)] -4.30103) was 2.583 and 1.686, the “residual enzymatic activity relative to control wells” value ([4]; log[inhibitor(M)] -5) was 3.305 and 1.741 and the “residual enzymatic activity relative to control wells” value ([4]; log[inhibitor(M)] -5.69897) was 5.202 and 4.016. For the same compound, the “residual enzymatic activity relative to control wells” value ([4]; log[inhibitor(M)] -6.39794) was 10.5662 and 11.8653 and the “residual enzymatic activity relative to control wells” value ([4]; log[inhibitor(M)] -7.09691) was 30.8137 and 34.4652.
